Assay results taken from article PMC12751141, “Disrupting α-Synuclein–ClpP interaction restores mitochondrial function and attenuates neuropathology in Parkinson’s disease models” (Molecular Neurodegeneration, 2025).

Tests used:
[1] = tested on: αSyn-PFF-inoculated primary cortical neurons; test: Immunofluorescence / western blot in αSyn-PFF-inoculated primary cortical neurons; format: cell-based, mouse; details: 1 µM daily
Experimental: Primary cortical neurons were isolated from normal E18 mouse cortex (sex undetermined) and cultured using complete culturing kit (cat#: KTC57ECX, TransnetYX Tissue). Briefly, 100,000 cells were seeded on poly-D-lysine coated glass coverslips (PDL15mm, TransnetYX Tissue) and cultured in NbActiv1 medium (NB1, TransnetYX Tissue). Neurons were treated with sonicated human α-Syn-PFF (SPR-322, StressMarq Biosciences) starting on post-seeding Day 5 till Day 14. Starting from post-seeding Day 9, TAT or CS2 peptide was added daily at 1µM. Neurons were fixed on Day 14 and subjected for experiments.
Cells were grown on coverslips, fixed with 4% paraformaldehyde for 20 min at room temperature, permeabilized with 0.1% Triton X-100 in PBS, and blocked with 2% normal goat serum. The cells were incubated with the indicated primary antibodies overnight at 4℃. After washing with PBS, the cells were incubated with Alexa Fluor 488/568 or 405/568 secondary antibody (1:500; Thermo Fisher Scientific) for 2 h at room temperature. The nuclei were counterstained with DAPI (1:10000; Sigma-Aldrich). Images of the staining were acquired using a Fluoview FV3000 confocal microscope (Olympus).
Fig. 5 CS2 treatment mitigates αSyn PFF induced neurotoxicity. (A) Representative images of ClpP, αSyn (Syn204; recognize human αSyn only) and NeuN staining in αSyn PFF-inoculated mouse primary cortical neurons that were pre-treated with TAT or CS2 peptide (scale bar = 30 μm). Quantification of ClpP and αSyn co-localization (n = 12–13 neurons/group, two-tailed Student’s t test, data are mean ± SEM). (B-C) Representative images of ClpP, αSyn (Syn204) and NeuN staining in αSyn PFF-inoculated mouse primary cortical neurons that were pre-treated with TAT or CS2 peptide (scale bar = 30 μm). Neurons were fixed in 4% PFA/4% sucrose/1%Triton-X100 to extract the soluble factions before immunostaining. […] (D-E) Representative images of β-tubulin (Tuj1) and pS129-αSyn (pS129) staining in αSyn PFF-inoculated mouse primary cortical neurons that were pre-treated with TAT or CS2 peptide (scale bar = 30 μm). […] (F-H) Representative images of PSD95, Synapsin1 (SYN1) and pS129 staining in αSyn PFF-inoculated mouse primary cortical neurons that were pre-treated with TAT or CS2 peptide (scale bar = 30 μm).
(A) Experimental schematic of TAT or CS2 peptide treatment in mouse primary cortical neurons inoculated with human αSyn PFF: Primary cortical neurons were isolated from E18 mouse cortex (see methods) and plated on coverslips (Day -5); neurons were treated with human αSyn PFF on Day 0 at 50 ng/ml; On Day 4, TAT or CS2 (1µM) was added daily till Day 9.
(B) Total protein lysates were harvested from primary neurons inoculated with αSyn-PFF after treatment with TAT or PBS, and subjected for western blot. Shown are the representative blots.

ClpP–αSyn interaction = test: ClpP–αSyn proximity ligation assay in iPSC-derived neurons; format: cell-based, human; details: A53T-αSyn neurons; 1 µM, five days; n = 20 images per group
Description: PD iPS cells lines (αSyn A53T, NN0004337, donor) and its isogenic corrected control line (NN0004344) were obtained from RUCDR Infinite Biologics. The iPS cells were differentiated into dopaminergic neuron-enriched neuronal culture with the protocol described previously. Briefly, iPS cell colonies were disassociated with accutase (Invitrogen), plated onto 6-well plates pre-coated with 2.5% Matrigel (BD Biosciences) and allowed to reach 80% confluence in mTeSR medium (Stem Cell Technology). For the first 10 days, cells were treated with SB431542 (10 µM; Tocris Bioscience) and Noggin (100 ng/ml) in Neural Media (NM) with FGF2 ([…]) and EGF ([…]). NM media contained: Neurobasal and DMEM/F12 (1:1), B-27 Supplement Minus Vitamin A (50×, Invitrogen), N2 Supplement (100X, Invitrogen), GlutaMAX (Invitrogen, 100×), 100 units/ml penicillin and 100 µg/ml streptomycin (Fisher); for the next 4 days, cells were treated with human recombinant Sonic hedgehog (SHH, 200 ng/ml) in neuronal differentiation medium. Neuronal differentiation medium contained Neurobasal and DMEM/F12 (1:3), B27, N2, GlutaMax and PS. […]
Proximity ligation assay (PLA) was performed using the Duolink® In Situ Starter Kit with Detection Reagents Green (mouse/rabbit; DUO92101, DUO92014). […] PLA puncta were detected as distinct fluorescent spots and imaged by confocal microscopy (Fluoview FV3000; Olympus). […]

Q: For `CC(C)[C@H](NC(=O)CNC(=O)CNC(=O)CCCCCNC(=O)[C@H](CCCNC(=N)N)NC(=O)[C@H](CCCNC(=N)N)NC(=O)[C@H](CCCNC(=N)N)NC(=O)[C@H](CCC(N)=O)NC(=O)[C@H](CCCNC(=N)N)NC(=O)[C@H](CCCNC(=N)N)NC(=O)[C@H](CCCCN)NC(=O)[C@H](CCCCN)NC(=O)[C@H](CCCNC(=N)N)NC(=O)CNC(=O)[C@@H](N)Cc1ccc(O)cc1)C(=O)N[C@H](C(=O)N[C@H](C(=O)N[C@@H](C)C(=O)O)[C@@H](C)O)C(C)C` [CS2, TAT-C6-GGVVTA], which “ClpP expression, PFF neurons” value ([1]; five days) is on record?
A: rescued the expression of ClpP

Q: What about the “ClpP / αSyn co-localization” value ([1]; five days, n = 12–13 neurons/group) of the same compound?
A: reduced this colocalization

Q: What about the “insoluble αSyn, PFF neurons” value ([1]; detergent-insoluble, n = 20-30 neurons per group) of the same compound?
A: significantly reduced the insoluble ClpP and αSyn signal

Q: What about the “insoluble ClpP” value ([1]; detergent-insoluble, n > 30 neurons/group) of the same compound?
A: significantly reduced the insoluble ClpP and αSyn signal

Q: What about the “pS129-αSyn level, PFF neurons” value ([1]; n = 3–6) of the same compound?
A: markedly reduced the level of pS129-αSyn

Q: And the Synapsin1/PSD95 colocalization ([1]; n > 30 areas)?
A: substantially restored Synapsin1/PSD95 colocalization

Q: What about the “ClpP–αSyn interaction by PLA” value (ClpP–αSyn interaction) of the same compound?
A: markedly reduced the ClpP–αSyn interaction
